From paper PMC6920794, “Evaluation of Novel Chalcone-Thiosemicarbazones Derivatives as Potential Anti-Leishmania amazonensis Agents and Its HSA Binding Studies” (Biomolecules, 2019)
Where two headings read alike, the source gives them in different places.

Legend:
[1] = tested on: L. amazonensis axenic amastigotes; assay: Axenic amastigotes assay (resazurin); assay type: cell-based; settings: Leishmania amazonensis, 72 h of culture, table title says 48 h
Method: Promastigote forms of L. amazonensis (MHOM/BR/77/LTB0016) were grown to a stationary phase, washed once in phosphate buffer solution (PBS) (pH = 7.4) and adjusted to 5 × 10^6 parasites/mL in Schneider’s medium, supplemented with 20% fetal bovine solution (FBS) pH = 5.5 and maintained at 305K. After 5 days of cultivation, the rounded forms without free flagella were obtained and, after heat shock, were used in the appropriate assays. To evaluate the activity against axenic amastigotes, the parasites were incubated with increasing concentrations of the prototypes (diluted in DMSO) for 72 h at 305K. These assays were performed in triplicate in 96-well flat bottom plates (Falcon Co, Franklin Lakes, USA). The leishmanicidal activity was evaluated by adding 22 μl of resazurin to each well. After 4 h, the cell viability was measured as described above. Calculation of the IC50 values was determined in relation to the control by a sigmoidal model using GraphPad Prism 6.0 software.

[2] = molecular target: T1, human serum albumin (HSA) (Homo sapiens, UniProt P02768); assay: HSA binding, steady-state fluorescence quenching; settings: for KSV Stern-Volmer quenching constant: PBS pH 7.4
T1 construct: purchased Sigma Aldrich, St. Louis, MO, USA
Method: The chemicals HSA and PBS buffer were purchased from Sigma Aldrich, St. Louis, MO, USA and the pH of buffer solution was checked (pH = 7.40). Jasco J-815 optical spectrometer (Jasco Easton, MD, USA) was used as equipment for steady-state fluorescence and circular dichroism (CD) spectra measurements and a thermostatic cuvette holder Jasco PFD-425S15F (Jasco Easton, MD, USA) was applied for control of temperature in the quartz cell (1.0 cm optical path). All spectra were recorded as the average of three scans with appropriate background corrections. For steady-state fluorescence measurements it was applied 305–450 nm range as emission wavelength (λexc = 295 nm) at 289K, 296K, 303K and 310K. First, it was recorded spectra for HSA solution (1.00 × 10^−5 M, in PBS) and then it was added manually the compound 5e, achieving final ligand concentrations of 0.35; 0.70; 1.05; 1.40; 1.74; 2.09; 2.44; and 2.78 × 10^−5 M.
In order to delete the possible absorption contribution of the compound 5e in the steady-state fluorescence results, inner filter effect was applied, according to the Equation 2 [33]:(2) Fcor=FObs10^[Aex+Aem/2] where Fcor and Fobs are the corrected and observed fluorescence intensity values, while Aex and Aem represent the absorbance value at the excitation (λ = 295 nm: ε = 6,235 cm^−1M^−1 in PBS) and emission wavelengths (λ = 340 nm: ε = 4,550 cm^−1M^−1 in PBS).
The steady-state fluorescence results for the interaction HSA:5e were analyzed according to Stern-Volmer (Equation 3), double logarithmic (Equation 4), van’t Hoff (Equation 5) and Gibbs’ free energy (Equation 6) approximations:(3) F0/F=1+Ksv[Q]=1+kqτ0[Q] (4) log(F0−F/F)=logKa+nlog[Q] (5) lnKa=−ΔH°/RT+ΔS°/R (6) ΔG°=ΔH°−TΔS° where F0 and F are the steady-state fluorescence intensities of HSA in the absence and presence of 5e, respectively. [Q], KSV and kq are the 5e concentration, Stern-Volmer quenching constant and bimolecular quenching rate constant, respectively. τ0 is the experimental fluorescence lifetime of HSA in the absence 5e (5.98 ± 0.15) × 10^−9 s. Ka and ƒ are the binding constant and fraction of the initial fluorescence intensity corresponding to the fluorophore which is accessible by the quencher (f ≈ 1.00), respectively. ΔH°, ΔS° and ΔG° are the enthalpy, entropy and Gibbs’ free energy change, respectively. T and R are the temperature (289 K, 296 K, 303 K and 310 K) and gas constant (8.3145 Jmol^−1K^−1), respectively. All quantitative values were expressed as “± SD” (obtained through three scans).

[3] = molecular target: T1, human serum albumin (HSA); assay: HSA time-resolved fluorescence decays; assay type: binding; settings: 5e 2.78 × 10^−5 M, HSA 1.00 × 10^−5 M, room temperature
Method: The fluorimeter model FL920 CD from Edinburgh Instruments (Edinburgh, UK), equipped with an electrically pumped laser (EPL, with λexc = 280 ± 10 nm; a pulse of 850 ps with the energy of […]; monitoring emission at 340 nm) was used for time-resolved fluorescence decays measurement. The experiment was conducted for a 3.0 mL HSA solution (1.00 × 10^−5 M, in PBS) without and in the presence of 5e (2.78 × 10^−5 M) at room temperature.

[4] = molecular target: T1, human serum albumin (HSA); assay: HSA circular dichroism (α-helix content); assay type: binding; settings: 310K, 5e 2.78 × 10^−5 M
Method: Circular dichroism (CD) spectra were measured in the same equipment used in the steady-state fluorescence analysis, using 200–250 nm range at 310K (human body temperature). The experiment was conducted for a 3.0 mL HSA solution (1.00 × 10^−6 M, in PBS) in the absence and presence of 5e (2.78 × 10^−5 M). Each spectrum obtained was the average of three scans. The intensity of the signal from the CD spectra was expressed as mean residue ellipticity (MRE), defined according to Equation (7):(7) MRE=θ/10×n×l×Cp where θ, n, l and Cp are the observed CD (in millidegrees), number of amino acid residues (585 for HSA), optical pathlength of the cell (1.00 cm) and molar concentration of HSA (1.00 × 10^−6 M), respectively.
In order to calculate quantitative information on the percentage of changes in the α-helix content upon 5e binding, the resulting MRE at 208 and 222 nm (far-UV region) were analyzed according to Equations (8A) and (8B):(8A) α−helix%=(−MRE208−4000)/(33000−4000)×100 (8B) α−helix%=(−MRE222−2340)/30300×100

T1 sequence (P02768 25-609): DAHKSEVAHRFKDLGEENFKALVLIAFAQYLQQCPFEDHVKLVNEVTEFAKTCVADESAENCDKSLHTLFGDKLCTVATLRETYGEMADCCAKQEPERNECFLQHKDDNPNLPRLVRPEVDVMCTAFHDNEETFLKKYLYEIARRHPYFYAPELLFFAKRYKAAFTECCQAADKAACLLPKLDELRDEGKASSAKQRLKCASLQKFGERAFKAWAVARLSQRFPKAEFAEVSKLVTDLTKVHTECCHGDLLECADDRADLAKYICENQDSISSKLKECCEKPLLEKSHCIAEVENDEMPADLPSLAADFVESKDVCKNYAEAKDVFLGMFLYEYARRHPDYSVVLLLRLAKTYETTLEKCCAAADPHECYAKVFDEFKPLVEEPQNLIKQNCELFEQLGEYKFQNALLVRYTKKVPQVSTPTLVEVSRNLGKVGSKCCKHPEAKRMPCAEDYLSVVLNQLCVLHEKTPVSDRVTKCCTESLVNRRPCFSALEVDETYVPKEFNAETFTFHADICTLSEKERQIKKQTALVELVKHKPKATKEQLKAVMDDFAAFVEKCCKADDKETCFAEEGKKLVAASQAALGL

SMILES: NC(=S)N/N=C(\C=C\c1ccc(Cl)cc1)c1ccccc1 [Compound 5e, (1E,2E)-3-(4′-chlorophenyl)-1-phenylprop-2-en-1-one thiosemicarbazone]
- IC50 [1]: 3.19 ± 1.2 µM
- n number of binding sites [2]: ~ 1
- kq bimolecular quenching rate constant ([2]; 289 K): 4.15e+12 M⁻¹ s⁻¹
- n number of binding sites ([2]; 289 K): 1.05 ± 0.01
- ΔG° Gibbs' free energy change ([2]; 289 K): −26.1 kJmol^−1
- KSV Stern-Volmer quenching constant ([2]; 289 K): 2.48 ± 0.52 ×10^4 M^−1
- Kd ([2]; 289 K, double logarithmic approximation, read-out: Ka binding constant (converted)): 19.4 µM
- kq bimolecular quenching rate constant ([2]; 296 K): 4.16e+12 M⁻¹ s⁻¹
- n number of binding sites ([2]; 296 K): 1.07 ± 0.01
- ΔG° Gibbs' free energy change ([2]; 296 K): −26.6 kJmol^−1
- KSV Stern-Volmer quenching constant ([2]; 296 K): 2.49 ± 0.50 ×10^4 M^−1
- Kd ([2]; 296 K, double logarithmic approximation, read-out: Ka binding constant (converted)): 20.6 µM
- kq bimolecular quenching rate constant ([2]; 303 K): 4.34e+12 M⁻¹ s⁻¹
- n number of binding sites ([2]; 303 K): 1.06 ± 0.01
- ΔG° Gibbs' free energy change ([2]; 303 K): −27.1 kJmol^−1
- KSV Stern-Volmer quenching constant ([2]; 303 K): 2.59 ± 0.51 ×10^4 M^−1
- Kd ([2]; 303 K, double logarithmic approximation, read-out: Ka binding constant (converted)): 21.9 µM
- kq bimolecular quenching rate constant ([2]; 310 K): 4.6e+12 M⁻¹ s⁻¹
- n number of binding sites ([2]; 310 K): 1.05 ± 0.01
- ΔG° Gibbs' free energy change ([2]; 310 K): −27.6 kJmol^−1
- KSV Stern-Volmer quenching constant ([2]; 310 K): 2.75 ± 0.33 ×10^4 M^−1
- Kd ([2]; 310 K, double logarithmic approximation, read-out: Ka binding constant (converted)): 22.8 µM
- Kd ([2]; all temperatures, read-out: Ka binding constant (order of magnitude)): ~100 µM
- decrease of HSA fluorescence emission ([2]; maximum addition of the ligand 2.78 × 10^−5 M, HSA 1.00 × 10^−5 M): about 50%
- ΔH° enthalpy change ([2]; van't Hoff plot, 289–310 K): −5.79 ± 0.27 kJmol^−1
- ΔS° entropy change ([2]; van't Hoff plot, 289–310 K): 7.02 ± 0.09 ×10^−2 kJmol^−1K^−1
- HSA fluorescence lifetime τ1 in the presence of ligand [3]: 1.77 ± 0.12 ns
- HSA fluorescence lifetime τ2 in the presence of ligand [3]: 5.91 ± 0.16 ns
- α-helix content of HSA:5e at 222 nm ([4]; HSA alone 53.5%): 52.2%
- α-helix content of HSA:5e at 208 nm ([4]; HSA alone 57.1%): 55.2%
